# Assay results published in paper PMC6270194 (Molecules, 2013).
# Marks after values point to notes of the source that are not given here.
# Legend:
# [1] = tested on: angiotensin converting enzyme (ACE); assay: Angiotensin converting enzyme (ACE) inhibition assay; format: biochemical; details: 10 μM compounds dissolved in DMSO
# Protocol: ACE assay is based on ACE inhibitory activity of test samples. The enzyme activity was measured by production of hippuric acid from the substrate hippuryl-L-histidyl-L-leucine (HHL). ACE cleaves the substrate to expose a free N-terminus, which was fluorogenically labeled with o-phthaldialdehyde (OPA). The florescence signal was measured by using excitation of 350 nm and emission of 500 nm. ACE inhibition activity of samples was measured using the following equation: % inhibition = 100 − (Acontrol − Asample)/Acontrol × 100 (1) where A is the absorbance Equation (1).
# [2] = tested on: human endothelial lung cells; assay: Cytotoxicity analysis by LDH release assay; format: cell-based; details: 10 µM, 24 hours
# Protocol: In the current study authors conducted a toxicology study to confirm safety of compounds and their dosage for potential animal or clinical studies. The study was conducted at 10 µM concentration using human endothelial lung cells. […] Literature reports on cytotoxic behavior of potent natural antioxidants are rare. Research in the field of free radicals mainly deals with screening of novel antioxidants and their mechanism of action.
# Human lung cell line (ATCC® PCS-100-022™) was purchased from American Type Culture Collection (Cederlane, Burlington, ON, Canada). Cell lines were maintained and grown in DMEM complete growth media, supplemented with 10% fetal bovine serum (FBS), 100 units/mL penicillin and 100 µg/mL streptomycin (Cederlane) at 37 °C, in a humidified 5% CO2 incubator. Cell growth medium was changed every 48 hours and when cells reached 80% confluence, they were detached from 75 cm^2 tissue culture flask using 0.25% trypsin-EDTA treatment. The detached cells were collected in sterile tube in FBS free media. Collected cells were then counted using the Millipore Scepter 2.0 handheld automated cell counter. Further assay specific analysis was performed as described in section 2.10.
# Cytotoxicity assay was performed using Promega Cytotox 96® non-radioactive colorimetric assay (Promega Corporation). The assay measures the lactate dehydrogenase (LDH) release upon cell lysis. The released LDH from cells was measured in an enzymatic assay based on conversion of tetrazolium salt to a red formazan product. Briefly, 5,000 human endothelial lung cells in 100 µL of serum-free culture medium were seeded in 96 well sterile plates. Cells were allowed to adhere to the plates for 24 h at 37 °C in a humidified, 5% CO2 incubator. After 24 h, the serum-free media was replaced by test compounds in 100 µL of serum-free culture medium. […] The test compounds at 10 µM concentration were allowed to interact with cells for 24 hours after which absorbance were recorded at 490 nm using BMG FLUOstar OPTIMA spectrophotometer (BMG Labtech, Durham, NC). […]
# [3] = Oxygen radical absorbance capacity (ORAC) assay; details: 1 μM compounds dissolved in DMSO; Trolox equivalence; mean ± SD
# Protocol: ORAC assay is based on the free radical damage to a fluorescence probe measured by fluorescence intensity over the time. The fluorescein sodium salt was used as fluorescence probe and change in its intensity was estimated as the index of the degree of free radical damage. Assay was performed using method described elsewhere. Briefly, the standards and samples were prepared using 75 mM phosphate buffer (pH 7). As the peroxy radicals are generated from decomposition of 2,2'-azobis(2-amidino-propane) dihydrochloride (AAPH), the signal was quenched from fluorescein. However, in the presence of antioxidant samples the fluorescence signal can be stabilize which depends directly upon the antioxidant’s capacity to neutralize the free radical. Quadratic relation emerging from florescent area under the decaying curve was used to calculate antioxidant capacity as mmol Trolox equivalence per L.
# HIV-1 protease = biological target: T1, HIV-1 protease (Human immunodeficiency virus type 1 group M subtype B, UniProt P04585); assay: HIV-1 protease inhibition assay (fluorescent substrate); format: biochemical; details: 10 μM compounds dissolved in DMSO; read-out: % Enzyme Inhibition HIV-I protease
# T1 construct: HIV-1 protease enzyme (Sigma Aldrich); purchased Sigma Aldrich
# Protocol: HIV-1 protease inhibition was performed by using a previously described method. HIV protease fluorescent substrate and HIV-1 protease enzyme (Sigma Aldrich) were used to determine HIV inhibition capacity of sample. Three primary controls i.e., blank, sample and positive control were used. Reaction mixture of 200 µL comprised of five enzyme units (5U) of HIV-1 protease along with 0.5 pmol of enzyme substrate. After addition of both enzymes and substrates, test compounds were added in different concentrations. Reaction mixture was incubated at 37 °C which leads to generation of fluorescence signal by cleaving Tyr-Pro peptide bond of the substrate. Finally reaction mixture was heated for 5 minutes at 90 °C to stop the reaction. The mixture was centrifuged at 12,000 rpm for 3 min. and supernatant was used to measure the fluorescence signal. The enzyme inhibition was calculated using the Equation (1).
# Tyrosinase = Tyrosinase inhibition assay (L-DOPA substrate); format: biochemical; details: 10 μM compounds dissolved in DMSO
# Protocol: Tyrosinase inhibition was calculated based on previously described methods using L-DOPA as the substrate. Tyrosinase inhibition depended upon the amount of dopachrome produced in the reaction mixture. Absorption was measured at 490 nm to calculate the amount of dopachrome produced. The assay was performed in 96-well clear polystyrene plates using FLUOstar OPTIMA plate reader. The tyrosinase inhibitory effect of sample was measured using the following the Equation (1).
# [4] = Ferric reducing ability of plasma (FRAP) assay; details: 10 μM compounds dissolved in DMSO; Trolox equivalence; mean ± SD
# Source text: The FRAP assay uses antioxidants in a redox-linked colorimetric assay to reduce ferric tripyridyl triazine to ferrous form at low pH [20].
# FRAP assay is based on ferric to ferrous ion reduction to test the electron donating capacity of antioxidants. The assay was modified by using the 96-well microplate reader with an injection port system. Briefly, the FRAP working reagent was made using acetate buffer, 2,4,6-Tris (2-pyridyl)-s-triazine solution and ferric chloride in the ratio 10:1:1. […] After 6 min reaction time, absorbance was measured at 593 nm. Trolox standards at different concentrations were used to calculate the antioxidant capacity as mmol Trolox equivalence per L.
# [5] = DPPH· free radical scavenging assay; details: for IC50: DPPH· scavenging, 0.2 mM DPPH· in DMSO, absorbance 515 nm; for radical scavenging capacity higher than curcumin (fold): relative to curcumin
# Protocol: DPPH^· assay is widely used to observe radical scavenging activity of various compounds and extracts. DPPH^· is stable N radical which is reduced to hydrazine during its reaction with hydrogen donors.
# Initially, 0.2 mM DPPH^· solution was prepared using DMSO as the solvent. […] During reduction of DPPH^· solution by antiradical compound, absorption of DPPH^· was measured at 515 nm. The spectrophotometric data was acquired using BMG FLUOstar OPTIMA spectrophotometer (BMG Labtech, Durham, NC, USA) and the IC50 values were calculated.
Structure (SMILES),% Enzyme Inhibition ACE [1],"cytotoxicity ranking (LDH release), in words [2]",ORAC antioxidant capacity [3],inhibition at 10 µM (HIV-1 protease) [%],% Enzyme Inhibition Tyrosinase (Tyrosinase),FRAP antioxidant capacity [4],"antiradical capacity lower than other series 3 analogues (fold) ([5]; DPPH assay, relative to other curcumin analogues in series 3)",IC50 [5] [µM],radical scavenging capacity higher than curcumin (fold) ([5]; DPPH assay)
COc1ccc(/C=C/C(O)=C2\CC/C(=C\c3ccc(OC)cc3)C2=O)cc1 [Compound 3c],67.42 ^cd %,highest cytotoxic behavior,1.17 ± 0.1 ^b mmole TE/L,35.9,58.54 ^g %,1.09 ± 0.1 ^gh mmole TE/L,approximately 10 fold,340,–
Cc1ccc(/C=C/C(O)=C2\CCC/C(=C\c3ccc(C)cc3)C2=O)cc1 [Compound 2g],15.04 ^g %,lowest cytotoxicity effects,0.84 ± 0.01 ^d mmole TE/L,20.1,59.44 ^fg %,1.12 ± 0.02 ^g mmole TE/L,–,1360,–
O=C1/C(=C(O)/C=C/c2ccc(Cl)cc2)CC/C1=C\c1ccc(Cl)cc1 [Compound 3f],75.12 ^bc %,lowest cytotoxicity effects,1.30 ± 0.02 ^b mmole TE/L,23.3,61.31 ^e %,1.09 ± 0.1 ^gh mmole TE/L,–,90,over 10 fold
O=C1/C(=C(O)/C=C/c2ccc(Cl)cc2)CCC/C1=C\c1ccc(Cl)cc1 [Compound 2f],No ACE inhibition activity was detected,–,0.49 ± 0.1 ^ef mmole TE/L,9.9,60.15 ^ef %,1.28 ± 0.04 ^fg mmole TE/L,–,710,–
COc1cc(/C=C/C(O)=C2\CCC/C(=C\c3ccc(O)c(OC)c3)C2=O)ccc1O [Compound 2d],84.59 ^ab %,–,0.50 ± 0.02 ^ef mmole TE/L,37.3,56.84 ^h %,5.35 ± 0.1 ^b mmole TE/L,–,720,–
O=C1/C(=C(O)/C=C/c2ccccc2)CC/C1=C\c1ccccc1 [Compound 3a],51.96 ^ef %,–,1.12 ± 0.1 ^c mmole TE/L,27,70.85 ^c %,1.41 ± 0.1 ^f mmole TE/L,–,70,over 10 fold
